Measurements reported in patent US9000033B2, “Composition for improving skin condition and appearance” (Arch Personal Care Products, L.P., priority 2008, dated 2015).

Experiments:
[1] = system: COL1A1 (collagen 1A1 gene); assay: Human gene microarray, Type 1A1 Collagen gene expression in normal human dermal fibroblasts; type: cell-based; conditions: for expression levels of collagen 1A1 gene: an appropriate amount
Method: (§1) Normal human dermal fibroblasts were grown in culture flasks until confluent using appropriate culture conditions. […] A separate flask of cells was treated with culture media alone and acted as an untreated control. After applying the test material the cells the cells were incubated for 24 hours at 37±2° C. and 5±1% CO2. At the end of the incubation period the culture media was removed via aspiration and the cells were washed once with cold phosphate buffered saline. After removing the wash the cells they were lysed by adding 700 μl of guanidinium thiocyanate lysis solution. The cell lysate was stored at −75° C. until the RNA extraction process could be completed (see below).
(§2) To the cell lysates prepared above, an equal volume of 64% ethanol was added and the tubes were vortexed. After combining, up to 700 μl of the mixture was transferred to a glass fiber filter cartridge, and the cartridge was loaded into a 1.5 ml collection tube and the cartridge was centrifuged for 1 minute at 14,000 RPM. The flow through was discarded and any remaining mixture was loaded into the filter cartridge and the centrifugation process was repeated until all of the mixture had been processed. The filter was then washed to remove any residual cellular debris from the RNA bound to the glass fibers by subsequently applying 700 μl of wash solution 1 (1 time) and 500 μl of wash solution 2 (2 times) to the filter cartridge and centrifuging at 14,000 RPM for 1 minute to pass each wash through the cartridge. After each wash the flowthrough was discarded. After the final wash one final spin was performed without wash solution to remove any residual wash solution in the filter cartridge. The RNA bound to the glass fibers within the cartridge was eluted by applying 30 μl of Tris-EDTA buffer (10 mM Tris-HCl, 1 mM EDTA, preheated to 70-80° C.) to the cartridge and centrifuging the cartridge in a new collection tube at 14,000 RPM for one minute. The elution process was repeated with an additional 30 μl of preheated TE buffer. After the RNA was eluted its concentration was quantified using a Ribogreen assay.
(§3) mRNA Amplification (Ambion MessageAmnp aRNA kit) First Strand cDNA Synthesis: To start the first strand synthesis, 5 μg of total RNA for each sample was added to 600 μl PCR tubes and the total volume of liquid in the tube was adjusted to 12 μl with DEPC H2O. To each tube, 1 μl of T7 Oligo(dT) primer was added and the tube was incubated at 70±2° C. for 10 minutes to denature the RNA and then placed on ice to allow the primer to anneal to the poly A ends of the mRNA. After cooling 2 μl of 10× first strand buffer, 1 μl of RNAse inhibitor and 4 μl of dNTP Mix were added to each tube, and each tube was placed at 42° C. 1 μl of Reverse Transcriptase was added and the tubes were heated and maintained at 42±2° C. for 2 hours. […]
(§4) Second Strand Synthesis and cDNA Purification: For the synthesis of the second strand of cDNA the following items were added to the tubes above (in this order): 63 μl DEPC H2O, 10 μl 10× second strand buffer, 4 μl dNTP mix, 2 μl DNA Polymerase and 1 μl of RNAse H. The tube was mixed and then incubated at 16±2° C. for 2 hours. Towards the end of the 2 hour incubation a sufficient quantity of DEPC H2O was warmed to 50±2° C. and a cDNA purification filter cartridge was equilibrated with 50 μl of cDNA binding buffer (one cartridge per sample) for at least 5 minutes. […]

ELN (elastin gene) = assay: Human gene microarray, Elastin gene expression in normal human dermal fibroblasts; type: cell-based; conditions: for expression levels of elastin gene: an appropriate amount
Method: as §1, §2, §3, §4

[2] = concentration from 0.0001 to 0.05%
[3] = normal human dermal fibroblasts, 0.05%
[4] = normal human dermal fibroblasts, 0.05% pomiferin, 24 hours, fluorescence intensity, Cy5 (treated) channel

Row | Compound | expression levels of collagen 1A1 gene [1] | increasing collagen 1A1 gene expression [1, 2] | collagen 1A1 gene expression compared to untreated cells [1, 3] | F635 Median, COL1A1 [1, 4] | expression levels of elastin gene (ELN (elastin gene)) | increasing elastin gene expression (ELN (elastin gene); [2]) | elastin gene expression compared to untreated cells (ELN (elastin gene); [3]) | F635 Median, ELN (ELN (elastin gene); [4])
1 | CC(C)=CCc1c2c(c3occ(-c4ccc(O)c(O)c4)c(=O)c3c1O)C=CC(C)(C)O2 [pomiferin] | significantly increase | equally effective | statistically significant increase | 38576 | significantly increase | equally effective | statistically significant increase | 3010
2 | CC(C)=CCc1c2c(c3occ(-c4ccc(O)cc4)c(=O)c3c1O)C=CC(C)(C)O2 [osajin] | significantly increase |  |  |  | significantly increase |  |  | 
